Measurements from PubChem BioAssay (NCI).
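Assay format: 96-well plates, 48-hour exposure. GI50 = concentration required for 50% inhibition of growth. TGI marks complete inhibition of growth.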

Tests used:
Assay in all cases: NCI anticancer screen, dose series, 48 h; in the data active = GI50 below about 0.43 µM; inactive = the rest
ACHN renal = system: ACHN renal
NCI/ADR-RES ovarian = system: NCI/ADR-RES ovarian
SF-539 CNS = system: SF-539 CNS
RPMI-8226 leukemia = system: RPMI-8226 leukemia
MOLT-4 leukemia = system: MOLT-4 leukemia
OVCAR-4 ovarian = system: OVCAR-4 ovarian
T-47D breast = system: T-47D breast
SNB-75 CNS = system: SNB-75 CNS
OVCAR-5 ovarian = system: OVCAR-5 ovarian
K-562 leukemia = system: K-562 leukemia
EKVX NSCLC = system: EKVX NSCLC
A549 NSCLC = system: A549 NSCLC
MCF7 breast = system: MCF7 breast
DU-145 prostate = system: DU-145 prostate
SK-MEL-28 melanoma = system: SK-MEL-28 melanoma
UO-31 renal = system: UO-31 renal
HCT-116 colon = system: HCT-116 colon
PC-3 prostate = system: PC-3 prostate
SNB-19 CNS = system: SNB-19 CNS
M14 melanoma = system: M14 melanoma
SW-620 colon = system: SW-620 colon
MDA-MB-435 = system: MDA-MB-435
MALME-3M melanoma = system: MALME-3M melanoma
CCRF-CEM leukemia = system: CCRF-CEM leukemia
SK-MEL-5 melanoma = system: SK-MEL-5 melanoma
HCT-15 colon = system: HCT-15 colon
HOP-62 NSCLC = system: HOP-62 NSCLC
MDA-N = system: MDA-N
786-0 renal = system: 786-0 renal
MDA-MB-231 breast = system: MDA-MB-231 breast
OVCAR-3 ovarian = system: OVCAR-3 ovarian
CAKI-1 renal = system: CAKI-1 renal
HL-60(TB) leukemia = system: HL-60(TB) leukemia
DMS 114 small cell lung = system: DMS 114 small cell lung
IGROV1 ovarian = system: IGROV1 ovarian
SK-MEL-2 melanoma = system: SK-MEL-2 melanoma
SK-OV-3 ovarian = system: SK-OV-3 ovarian
UACC-62 melanoma = system: UACC-62 melanoma
HOP-92 NSCLC = system: HOP-92 NSCLC
UACC-257 melanoma = system: UACC-257 melanoma
HCC-2998 colon = system: HCC-2998 colon
LXFL 529 NSCLC = system: LXFL 529 NSCLC
DMS 273 small cell lung = system: DMS 273 small cell lung
COLO 205 colon = system: COLO 205 colon
NCI-H522 lung = system: NCI-H522 lung
OVCAR-8 ovarian = system: OVCAR-8 ovarian
DLD-1 colon = system: DLD-1 colon
KM20L2 colon = system: KM20L2 colon
NCI-H23 lung = system: NCI-H23 lung
KM12 colon = system: KM12 colon
SNB-78 CNS = system: SNB-78 CNS
SF-295 CNS = system: SF-295 CNS
SF-268 CNS = system: SF-268 CNS
TK-10 renal = system: TK-10 renal
NCI-H460 lung = system: NCI-H460 lung
SR leukemia = system: SR leukemia
A498 renal = system: A498 renal
U251 CNS = system: U251 CNS
HT29 colon = system: HT29 colon
SN12C renal = system: SN12C renal
M19-MEL melanoma = system: M19-MEL melanoma
LOX IMVI melanoma = system: LOX IMVI melanoma
NCI-H226 lung = system: NCI-H226 lung

CCSC(=O)N1c2ccc(OC)cc2C=CC1C#N (stereo not drawn)
0.00522 µM: TGI (HL-60(TB) leukemia)
7.43 µM: TGI (SK-MEL-2 melanoma)
0.00138 µM: TGI (MDA-N)
737 µM: TGI (CAKI-1 renal)
199 µM: TGI (SW-620 colon)
121 µM: TGI (786-0 renal)
active: GI50 (NCI/ADR-RES ovarian) 0.00254 µM | GI50 (SNB-75 CNS) 0.231 µM | GI50 (MCF7 breast) 0.000805 µM | GI50 (PC-3 prostate) 0.214 µM | GI50 (MDA-MB-435) 0.000369 µM | GI50 (HCT-15 colon) 0.00168 µM | GI50 (MDA-N) 0.0003 µM
689 µM: TGI (RPMI-8226 leukemia)
0.0062 µM: TGI (OVCAR-3 ovarian)
734 µM: TGI (T-47D breast)
inactive: GI50 (OVCAR-5 ovarian) 0.596 µM | GI50 (SNB-19 CNS) 6.08 µM | GI50 (MDA-MB-231 breast) 0.529 µM
0.0105 µM: TGI (DU-145 prostate)
0.00553 µM: TGI (MDA-MB-435)
1.02 µM: TGI (DMS 114 small cell lung)
0.0467 µM: TGI (HOP-62 NSCLC)
0.00582 µM: TGI (SF-539 CNS)
> 1000 µM: TGI (ACHN renal) | TGI (MOLT-4 leukemia) | TGI (OVCAR-4 ovarian) | TGI (SNB-75 CNS) | TGI (OVCAR-5 ovarian) | TGI (K-562 leukemia) | TGI (EKVX NSCLC) | TGI (A549 NSCLC) | TGI (MCF7 breast) | TGI (SK-MEL-28 melanoma) | TGI (UO-31 renal) | TGI (PC-3 prostate) | TGI (SNB-19 CNS) | TGI (M14 melanoma) | TGI (MALME-3M melanoma) | TGI (CCRF-CEM leukemia) | TGI (IGROV1 ovarian)
0.224 µM: TGI (SK-MEL-5 melanoma)
0.0382 µM: TGI (HCT-116 colon)

CC12CCC(=O)N1c1cnccc1N2 (stereo not drawn)
> 100 µM: TGI (SK-OV-3 ovarian) | TGI (ACHN renal) | TGI (SF-539 CNS) | TGI (UACC-62 melanoma) | TGI (RPMI-8226 leukemia) | TGI (MOLT-4 leukemia) | TGI (OVCAR-4 ovarian) | TGI (HOP-92 NSCLC) | TGI (SNB-75 CNS) | TGI (UACC-257 melanoma) | TGI (OVCAR-5 ovarian) | TGI (HCC-2998 colon) | TGI (LXFL 529 NSCLC) | TGI (K-562 leukemia) | TGI (EKVX NSCLC) | TGI (DMS 273 small cell lung) | TGI (A549 NSCLC) | TGI (COLO 205 colon) | TGI (SK-MEL-28 melanoma) | TGI (UO-31 renal) | TGI (NCI-H522 lung) | TGI (HCT-116 colon) | TGI (OVCAR-8 ovarian) | TGI (SNB-19 CNS) | TGI (DLD-1 colon) | TGI (KM20L2 colon) | TGI (NCI-H23 lung) | TGI (KM12 colon) | TGI (M14 melanoma) | TGI (SW-620 colon) | TGI (SNB-78 CNS) | TGI (SF-295 CNS) | TGI (SF-268 CNS) | TGI (MALME-3M melanoma) | TGI (CCRF-CEM leukemia) | TGI (TK-10 renal) | TGI (SK-MEL-5 melanoma) | TGI (HCT-15 colon) | TGI (HOP-62 NSCLC) | TGI (NCI-H460 lung) | TGI (SR leukemia) | TGI (OVCAR-3 ovarian) | TGI (CAKI-1 renal) | TGI (A498 renal) | TGI (U251 CNS) | TGI (HL-60(TB) leukemia) | TGI (HT29 colon) | TGI (DMS 114 small cell lung) | TGI (IGROV1 ovarian) | TGI (SN12C renal) | TGI (SK-MEL-2 melanoma)

CC(C)(c1cn(Cc2ccccc2)c2ccccc12)c1cn(Cc2ccccc2)c2ccccc12
5.07 µM: TGI (SN12C renal)
> 100 µM: TGI (SK-OV-3 ovarian) | TGI (ACHN renal) | TGI (SF-539 CNS) | TGI (UACC-62 melanoma) | TGI (RPMI-8226 leukemia) | TGI (MOLT-4 leukemia) | TGI (M19-MEL melanoma) | TGI (OVCAR-4 ovarian) | TGI (HOP-92 NSCLC) | TGI (OVCAR-5 ovarian) | TGI (LXFL 529 NSCLC) | TGI (K-562 leukemia) | TGI (EKVX NSCLC) | TGI (A549 NSCLC) | TGI (LOX IMVI melanoma) | TGI (COLO 205 colon) | TGI (NCI-H522 lung) | TGI (HCT-116 colon) | TGI (OVCAR-8 ovarian) | TGI (DLD-1 colon) | TGI (NCI-H226 lung) | TGI (NCI-H23 lung) | TGI (KM12 colon) | TGI (M14 melanoma) | TGI (SW-620 colon) | TGI (SNB-78 CNS) | TGI (SF-295 CNS) | TGI (SF-268 CNS) | TGI (CCRF-CEM leukemia) | TGI (SK-MEL-5 melanoma) | TGI (HCT-15 colon) | TGI (HOP-62 NSCLC) | TGI (786-0 renal) | TGI (NCI-H460 lung) | TGI (SR leukemia) | TGI (OVCAR-3 ovarian) | TGI (CAKI-1 renal) | TGI (U251 CNS) | TGI (HL-60(TB) leukemia) | TGI (HT29 colon) | TGI (DMS 114 small cell lung) | TGI (IGROV1 ovarian)
99.6 µM: TGI (SNB-75 CNS)
